Reference: paper PMC9120017, “Inhibition mechanism of the chloride channel TMEM16A by the pore blocker 1PBC” (Nature Communications, 2022)
pIC50: −log10 of the molar value. “And” between values parts separate entries of the source, which are not always exact repeats. Equal values may be shown once. Read-outs that look alike come from different tables or passages of the source.

Biological target: T1, wild-type mouse TMEM16A (Mus musculus, UniProt Q8BHY3)
T1 construct: expressed in transfected cells; host or cells: HEK293T
T1 sequence (Q8BHY3 1-960): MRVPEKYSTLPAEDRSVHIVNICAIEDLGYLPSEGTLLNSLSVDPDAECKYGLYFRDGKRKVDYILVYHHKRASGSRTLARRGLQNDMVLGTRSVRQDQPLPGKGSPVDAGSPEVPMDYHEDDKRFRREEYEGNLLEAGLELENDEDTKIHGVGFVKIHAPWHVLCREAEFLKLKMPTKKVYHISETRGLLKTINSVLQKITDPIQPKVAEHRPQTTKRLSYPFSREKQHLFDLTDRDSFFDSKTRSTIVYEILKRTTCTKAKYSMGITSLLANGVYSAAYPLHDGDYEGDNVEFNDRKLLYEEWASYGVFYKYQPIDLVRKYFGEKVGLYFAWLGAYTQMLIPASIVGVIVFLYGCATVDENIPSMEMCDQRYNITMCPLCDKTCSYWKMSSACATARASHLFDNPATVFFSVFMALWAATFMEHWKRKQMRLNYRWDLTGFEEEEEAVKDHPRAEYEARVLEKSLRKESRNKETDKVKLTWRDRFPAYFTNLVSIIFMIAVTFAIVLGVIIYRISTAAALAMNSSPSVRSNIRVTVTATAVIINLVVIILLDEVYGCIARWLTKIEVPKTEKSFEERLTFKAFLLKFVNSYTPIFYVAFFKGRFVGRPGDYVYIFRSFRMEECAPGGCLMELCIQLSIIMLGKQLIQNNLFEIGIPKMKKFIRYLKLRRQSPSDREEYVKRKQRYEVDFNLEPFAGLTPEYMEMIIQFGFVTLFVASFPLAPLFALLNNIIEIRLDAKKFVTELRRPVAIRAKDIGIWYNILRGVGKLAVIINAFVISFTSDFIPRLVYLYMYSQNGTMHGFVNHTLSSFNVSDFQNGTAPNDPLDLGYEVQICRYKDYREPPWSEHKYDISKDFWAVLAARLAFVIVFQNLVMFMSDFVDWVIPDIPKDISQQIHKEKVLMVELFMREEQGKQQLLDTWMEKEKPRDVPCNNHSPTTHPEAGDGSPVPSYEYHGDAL
Experiment: Inside-out patch recording of 1PBC block, wild-type TMEM16A
Type: cell-based
Conditions: for remaining activity at 100 µM: read-out: I/Imax
Description: HEK293T cells (ATCC CRL-1573) were maintained in Dulbecco’s modified Eagle’s medium (DMEM; Sigma-Aldrich) supplemented with 10 U ml^−1 penicillin, 0.1 mg ml^−1 streptomycin (Sigma-Aldrich), 2 mM L-glutamine (Sigma-Aldrich), and 10% FBS (Sigma-Aldrich) in a humidified atmosphere containing 5% CO2 at 37 °C. HEK293S GnTI^− cells (ATCC CRL-3022) were maintained in HyClone HyCell TransFx-H medium (GE Healthcare) supplemented with 10 U ml^−1 penicillin, 0.1 mg ml^−1 streptomycin, 4 mM L-glutamine, 0.15% poloxamer 188 (Sigma-Aldrich), and 1% FBS in an atmosphere containing 5% CO2 at 185 rpm at 37 °C. The ac splice variant of mouse TMEM16A (UniProt ID: Q8BHY3), mouse TMEM16B (UniProt ID: Q8CFW1), or mouse TMEM16F (UniProt ID: Q6P9J9) bearing a 3C cleavage site, a Venus YFP, a Myc tag, and a Streptavidin-binding peptide (SBP) downstream of the open reading frame in a modified pcDNA3.1 vector (Invitrogen) were used as described previously[21],[31]. Mutations were introduced using a modified QuikChange method[58] and were verified by sequencing.
HEK293T cells were transfected with 3–4 μg DNA per 6 cm Petri dish using the calcium phosphate co-precipitation method and were used within 24–96 h after transfection. Recordings were performed on inside-out patches excised from HEK293T cells expressing the construct of interest. Patch pipettes were pulled from borosilicate glass capillaries (O.D. 1.5 mm, I.D. 0.86 mm, Sutter Instrument) and were fire-polished with a microforge (Narishige) before use. Pipette resistance was typically 3–8 MΩ when filled with the recording solutions detailed below. Seal resistance was typically 4 GΩ or higher. Voltage-clamp recordings were made using Axopatch 200B, Digidata 1550, and Clampex 10.7 (Molecular Devices). Analog signals were filtered with the in-built 4-pole Bessel filter at 10 kHz and were digitized at 20 kHz. Solution exchange was achieved using a gravity-fed system through a theta glass pipette mounted on an ultra-fast piezo-driven stepper (Siskiyou). […] All recordings were performed at 20 °C.
A symmetrical ionic condition was used throughout. Stock solution with Ca^2+-EGTA contained 150 mM NaCl, 5.99 mM Ca(OH)2, 5 mM EGTA, and 10 mM HEPES at pH 7.40. Stock solution with EGTA contained 150 mM NaCl, 5 mM EGTA, and 10 mM HEPES at pH 7.40. Free Ca^2+ concentrations were adjusted by mixing the stock solutions at the required ratios calculated using the WEBMAXC program (http://web.stanford.edu/~cpatton/webmaxcS.htm). Patch pipettes were filled with the stock solution with Ca^2+-EGTA, which has a free Ca^2+ concentration of 1 mM. 1PBC (ChemBridge) stock was reconstituted in anhydrous DMSO (Sigma-Aldrich) at 100 mM and stored at −20 °C. Working solutions with 1PBC were prepared by serial dilution. Unless otherwise stated, experiments were performed at a saturating Ca^2+ concentration as shown in Supplementary Table 1 and the primary data were corrected for current rundown as described previously[21],[25].
Concentration-response relations, obtained from the ratio of the I-V plots before and after the application of the blocker, were fitted to the Hill equation,1 I/Imax=1/1+IC50/[blocker]^h where I/Imax is the normalized current responses, IC50 defines the concentration at which inhibition is at its half-maximum, and h is the Hill coefficient.

[1] = 100 µM 1PBC, -100 mV, 2 µM Ca2+
[2] = 100 µM 1PBC, -120 mV, 2 µM Ca2+
[3] = 100 µM 1PBC, -140 mV, 2 µM Ca2+

- I/Imax scaled to open probability (100 µM 1PBC, 2 µM Ca2+, 80 mV): 0.02162
- Steady-state current (normalized) (100 µM 1PBC, 20 mV, 2 µM Ca2+): 0.006925
- remaining activity at 100 µM (100 µM 1PBC, 20 mV, 2 µM Ca2+): 3.56%
- Steady-state current (normalized) (100 µM 1PBC, 40 mV, 2 µM Ca2+): 0.0112
- remaining activity at 100 µM (100 µM 1PBC, 40 mV, 2 µM Ca2+): 2.97%
- Steady-state current (normalized) (100 µM 1PBC, 60 mV, 2 µM Ca2+): 0.0148
- remaining activity at 100 µM (100 µM 1PBC, 60 mV, 2 µM Ca2+): 2.68%
- Steady-state current (normalized) (100 µM 1PBC, 80 mV, 2 µM Ca2+): 0.01763
- remaining activity at 100 µM (100 µM 1PBC, 80 mV, 2 µM Ca2+): 2.49%
- Steady-state current (normalized) (100 µM 1PBC, 100 mV, 2 µM Ca2+): 0.02038
- remaining activity at 100 µM (100 µM 1PBC, 100 mV, 2 µM Ca2+): 2.4%
- Steady-state current (normalized) (100 µM 1PBC, 120 mV, 2 µM Ca2+): 0.024
- remaining activity at 100 µM (100 µM 1PBC, 120 mV, 2 µM Ca2+): 2.47%
- Steady-state current (normalized) (100 µM 1PBC, 140 mV, 2 µM Ca2+): 0.02832
- remaining activity at 100 µM (100 µM 1PBC, 140 mV, 2 µM Ca2+): 2.6%
- Steady-state current (normalized) (100 µM 1PBC, -20 mV, 2 µM Ca2+): -0.01026
- remaining activity at 100 µM (100 µM 1PBC, -20 mV, 2 µM Ca2+): 5.33%
- Steady-state current (normalized) (100 µM 1PBC, -40 mV, 2 µM Ca2+): -0.02602
- remaining activity at 100 µM (100 µM 1PBC, -40 mV, 2 µM Ca2+): 6.7%
- Steady-state current (normalized) (100 µM 1PBC, -60 mV, 2 µM Ca2+): -0.04778
- remaining activity at 100 µM (100 µM 1PBC, -60 mV, 2 µM Ca2+): 8.25%
- Steady-state current (normalized) (100 µM 1PBC, -80 mV, 2 µM Ca2+): -0.07707
- remaining activity at 100 µM (100 µM 1PBC, -80 mV, 2 µM Ca2+): 10%
- Steady-state current (normalized) [1]: -0.1118
- remaining activity at 100 µM [1]: 11.8%
- Steady-state current (normalized) [2]: -0.1551
- remaining activity at 100 µM [2]: 13.9%
- Steady-state current (normalized) [3]: -0.2042
- remaining activity at 100 µM [3]: 15.9%
- pIC50 (20 mV, 2 µM Ca2+): 5.47
- pIC50 (40 mV, 2 µM Ca2+): 5.56
- pIC50 (60 mV, 2 µM Ca2+): 5.63 and 5.64
- pIC50 (80 mV, 2 µM Ca2+): 5.69
- pIC50 (100 mV, 2 µM Ca2+): 5.70
- pIC50 (120 mV, 2 µM Ca2+): 5.68
- pIC50 (140 mV, 2 µM Ca2+): 5.62
- pIC50 (-20 mV, 2 µM Ca2+): 5.25
- pIC50 (-40 mV, 2 µM Ca2+): 5.13
- pIC50 (-60 mV, 2 µM Ca2+): 5.04
- pIC50 (-80 mV, 2 µM Ca2+): 4.94 and 4.93
- pIC50 (-100 mV, 2 µM Ca2+): 4.85
- pIC50 (-120 mV, 2 µM Ca2+): 4.76 and 4.77
- pIC50 (-140 mV, 2 µM Ca2+): 4.70
- Electrical distance of 1PBC block (functional experiments): 0.2-0.25
- Membrane permeability (neutral pH, implied from block from the extracellular side after intracellular application): freely membrane-permeable
- pIC50 (zero mV, saturating Ca2+ concentration (2 µM), applied from the intracellular side): ~5.40
SMILES: N#Cc1c(C(F)(F)F)cc(O)n2c1nc1ccccc12 [1PBC]
- Selectivity for anion channels of the TMEM16 family over the scramblase TMEM16F (TMEM16A and TMEM16B blocked, TMEM16F current not): selective for anion channels of the TMEM16 family over the scramblase TMEM16F
